# Legend:
# Candida albicans (CAF-2) = assay: Anti-fungal/anti-yeast activity: MIC50 (broth microdilution) and MFC; assay type: cell-based
# Procedure: (§1) Fluconazole, an ergosterol inhibitor, and the beta-1,3-glucan inhibitor micafungin served as controls (See Tables 1-8).
# (§2) The minimum inhibitory concentrations resulting in 50% growth inhibition (MIC50) of […] Candida species (C. albicans, C. tropicalis and C. glabrata, C. lusitaniae, C. parapsilosis, and C. apicola) as well as Aspergillus fumigatus to a set of novel synthetic compounds was determined in accordance with the guidelines in CLSI document M27-A2 (Clinical and Laboratory Standards Institute; Wayne, Pa.). The total volume of cells and drug was 100 μL per microtiter well, and each drug was diluted in RPMI to achieve final concentrations of 0.2-100 μg/ml. Uninoculated cultures were used as a reference standard. Stock inoculum suspensions were prepared from 24 hour cultures on YPD (yeast extract/peptone/dextrose) media at 30° C. For MIC determinations, an inoculum of 1.0×10^3 cells of Candidia and 2.0×10^3 cells of Aspergillus per well were used, and cells in diluted drugs were prepared in RPMI-1640 medium. MICs were determined both visually and spectrophotometrically at 24 hours and 48 h at 550 nm using a micro plate reader. The MIC50 endpoint was measured as the lowest drug concentration resulting in a reduction of growth of 50% or more compared with growth of the control.
# (§3) The minimum fungicidal concentrations (MFCs) were determined for each drug-isolate-medium combination as follows. After 48 hours of incubation, 100 μL of each drug-isolate-medium combination (2 plates) was subcultured onto YPD plates (100 μL of solution was spread over the YPD plate). […] The plates were then incubated at 30° C. for 48 hours.
# (§4) The in vitro fungicidal activities (MFCs) were determined for each drug-isolate-medium combination as follows. After 48 hours of incubation, 10 μL each drug-isolate-medium combination was spotted onto YPD plates (10 μL of each well is spotted sequentially with positive and negative control wells). […] The plates were then incubated at 30° C. for 48 hours.
# Candida apicola = assay: as above; assay type: cell-based
# Procedure: as §1, §2, §3, §4
# Candida glabrata = assay: as above; assay type: cell-based
# Procedure: as §1, §2, §3, §4
# Candida lusitaniae = assay: as above; assay type: cell-based
# Procedure: as §1, §2, §3, §4
# Candida tropicalis = assay: as above; assay type: cell-based
# Procedure: as §1, §2, §3, §4
# Candidia parapsilosis = assay: as above; assay type: cell-based
# Procedure: as §1, §2, §3, §4
# [1] = system: Saccharomyces cerevisiae (YPH501); assay: as above; assay type: cell-based
# Huh7 cells = assay: Neutral red uptake assay (cytotoxicity); assay type: cell-based, human
# From the text: The neutral red uptake assay is a cytotoxicity test that is based on the ability of viable cells to incorporate and bind the supra-vital dye neutral red in the lysosomes. This weakly cationic dye penetrates cell membranes by non-ionic passive diffusion and concentrates in the lysosomes, where it binds by electrostatic hydrophobic bonds to anionic and phosphate groups of the lysosomal matrix. The dye is then extracted from the viable cells using an acidified ethanol solution, and the absorbance of the solubilized dye is read. When the cell dies or the pH gradient is reduced, the dye is not retained and consequently, the amount of retained dye is proportional to the number of viable cells. Most primary cells and cell lines can be used for this method. The HepG2 and Huh7, two human hepatoma cell lines, were used for this study. The cells were seeded in 96-well tissue culture plates and treated for 48 hours with the compounds. The plates were then incubated for 2 hours with a medium containing neutral red. The cells were subsequently washed, the dye was extracted in each well, and the absorbance was read using a spectrophotometer (FIG. 3 and Table 11).
# Huh7 or HepG2 cell line = assay: MTT assay (cytotoxicity); assay type: cell-based, human; settings: 24 hours and 48 hours
# Procedure: The MTT assay is a colorimetric assay that measures the reduction of yellow 3-(4,5-dimethylhiazol-2-yl)-2,5-diphenyl tetrazolium bromide (MTT) by mitochondrial succinate dehydrogenase. The MTT enters the cells and passes into the mitochondria where it is reduced to an insoluble, dark purple, formazan product. The cells are then solubilized with an organic solvent (e.g., isopropanol) and the released, solubilized formazan reagent is measured spectrophotometrically. Since reduction of MTT can only occur in metabolically active cells, the level of activity is a measure of the viability of the cells.
# Cells of the Huh7 or HepG2 cell line were seeded in a 96 well plate. The plate was incubated overnight at 37° C. in a humidified incubator, 5% CO2. The test compounds were added to the plate. Different concentrations of drug were tested in triplicate along with a negative control. The final volume was adjusted to 100 μl per well. The plate was incubated overnight at 37° C. in a humidified incubator, 5% CO2. After 24 hours and 48 hours, MTT reagent (5 mg/ml, 10 μl/100 μl per well of the 96 well plate) was added and incubated at 37° C. for 3 hours. After 3 hours, 100 μl of the DMSO solution was added to each well and the plate was rocked at room temperature for 1 hour. The plate was then read on a plate reader at […].
# [2] = Saccharomyces cerevisiae (YPH501)
smiles,measurement,setting,value
O=c1c2ccccc2sn1Cc1nnc(Cc2ccccc2)o1 [Compound I-4],Activity (fungicidal/fungistatic),Candida albicans (CAF-2),fungicidal (An MFC/MIC ratio of less than four indicates that the compound is fungicidal)
same,MFC,Candida albicans (CAF-2),6.4 µg/mL
same,Ratio MFC/MIC,Candida albicans (CAF-2),1
same,MIC,Candida albicans (CAF-2); read-out: MIC-50,6.4 µg/mL
same,Activity (fungicidal/fungistatic),Candida apicola; Candida apicola,fungicidal (An MFC/MIC ratio of less than four indicates that the compound is fungicidal)
same,MIC-50,Candida apicola; Candida apicola,12.5 µg/mL
same,Ratio MFC/MIC,Candida apicola; Candida apicola,1
same,MFC,Candida apicola; Starmerella apicola,12.5 µg/mL
same,Activity (fungicidal/fungistatic),Candida glabrata; Candida glabrata,fungicidal (An MFC/MIC ratio of less than four indicates that the compound is fungicidal)
same,Ratio MFC/MIC,Candida glabrata; Candida glabrata,1
same,MFC,Candida glabrata; Nakaseomyces glabratus,12.5 µg/mL
same,MIC,"Candida glabrata; Nakaseomyces glabratus, read-out: MIC-50",12.5 µg/mL
same,Activity (fungicidal/fungistatic),Candida lusitaniae; Candida lusitaniae,fungicidal (An MFC/MIC ratio of less than four indicates that the compound is fungicidal)
same,Ratio MFC/MIC,Candida lusitaniae; Candida lusitaniae,1
same,MFC,Candida lusitaniae; Clavispora lusitaniae,12.5 µg/mL
same,MIC,"Candida lusitaniae; Clavispora lusitaniae, read-out: MIC-50",12.5 µg/mL
same,Activity (fungicidal/fungistatic),Candida tropicalis,fungicidal (An MFC/MIC ratio of less than four indicates that the compound is fungicidal)
same,MFC,Candida tropicalis,12.5 µg/mL
same,Ratio MFC/MIC,Candida tropicalis,1
same,MIC,Candida tropicalis; read-out: MIC-50,12.5 µg/mL
same,MFC,Candidia parapsilosis,12.5 µg/mL
same,Activity (fungicidal/fungistatic),Candidia parapsilosis; Candidia parapsilosis,fungicidal (An MFC/MIC ratio of less than four indicates that the compound is fungicidal)
same,Ratio MFC/MIC,Candidia parapsilosis; Candidia parapsilosis,1
same,MIC,Candidia parapsilosis; read-out: MIC-50,12.5 µg/mL
same,MFC,[1]; Saccharomyces cerevisiae,6 µg/mL
same,Activity (fungicidal/fungistatic),[1]; [2],fungicidal (An MFC/MIC ratio of less than four indicates that the compound is fungicidal)
same,Ratio MFC/MIC,[1]; [2],1
same,MIC,"[1]; Saccharomyces cerevisiae, read-out: MIC-50",6 µg/mL
same,Percentage Viability,Huh7 cells; 3.3 μg/mL (approx 1X MIC),>100%
same,Percentage Viability,Huh7 cells; 10 μg/mL (approx 3X MIC),>100%
same,Percentage Viability,Huh7 cells; 33 μg/mL (approx 10X MIC),>100%
same,Percentage Viability,Huh7 cells; 100 μg/mL (approx 30X MIC),75%
same,Toxicity to mammalian cell lines (MTT assay),Huh7 or HepG2 cell line,minimally toxic
